Data from PMC6268433, “New Sorafenib Derivatives: Synthesis, Antiproliferative Activity Against Tumour Cell Lines and Antimetabolic Evaluation” (Molecules, 2012).

Legend:
[1] = tested on: SW 620 (colon carcinoma); assay: Cytostatic activity, MTT assay; type: cell-based, human; conditions: Homo sapiens, SW-620, 72 h, read-out: Tumour cell growth/IC50 SW 620
Description: (§1) The experiments were carried out on six human tumour and one murine cell lines, which are derived from five solid tumour types and two (one murine and one human) suspension tumour cell lines. The following cell lines were used: HCT 116 (colon carcinoma), SW 620 (colon carcinoma), MCF-7 (breast carcinoma), H 460 (lung carcinoma), L1210 (murine leukemia), CEM (human lymphoma) and HeLa (cervix carcinoma). […] Compounds 3d and 3e with a benzene ring in the amide moiety, exerted a somewhat stronger (but still rather poor) cytostatic effect (IC50 ≈ 20-90 µM). […] The compounds were also equally cytostatic against primary human embryonic lung (HEL) fibroblast cells (Table 2). The obtained data clearly point to the obligatory presence of the [4-chloro-3-(trifluoromethyl)phenyl]carbamoyl group being crucial for high potency. Also, the 4a–e series of compounds are far more lipophilic than the 2 and 3 series of compounds, which may be related to their increased cytostatic potential.
(§2) HCT 116, SW 620, MCF-7, and H 460 cells were cultured as monolayers and maintained in Dulbecco’s modified Eagle medium (DMEM), supplemented with 10% fetal bovine serum (FBS), 2 mmol·L^–1 L-glutamine, 100 U·mL^–1 penicillin and 100 μg·mL^–1 streptomycin in a humidified atmosphere with 5% CO2 at 37 °C. The growth inhibition activity was assessed as described previously, according to the slightly modified procedure of the National Cancer Institute, Developmental Therapeutics Program. Briefly, the cells were seeded onto standard 96-well microtiter plates on day 0. The cell concentrations were adjusted according to the cell population doubling time (PDT): 3000 cells/well for HCT116 and SW 620 cell lines (PDT = 20–24 h) and 4,000 cells/well for MCF-7 cell lines (PDT = 33 h). Tested agents were then added in five consecutive 10-fold dilutions (10^–8 to 10^–4 mol·L^–1) and incubated for further 72 h. Working dilutions were freshly prepared on the day of testing. The solvent (DMSO) was also tested for eventual inhibitory activity by adjusting its concentration to be the same as in working concentrations (maximal concentration of DMSO was 0.25%). After 72 h of incubation, the cell growth rate was evaluated by performing the MTT assay (Promega) which detects dehydrogenase activity in viable cells. The absorbency (OD, optical density) was measured on a microplate reader at 570 nm. Each test point was performed in quadruplicate in at least three individual experiments. The results are expressed as IC50, which is the concentration necessary for 50% of inhibition. […] Each result is a mean value from three separate experiments.

[2] = tested on: H 460 (lung carcinoma); assay: Cytostatic activity, MTT assay; type: cell-based, human; conditions: Homo sapiens, NCI-H460, 72 h, read-out: Tumour cell growth/IC50 H 460
Description: as §1, §2

[3] = tested on: MCF-7 (breast carcinoma); assay: Cytostatic activity, MTT assay; type: cell-based, human; conditions: Homo sapiens, MCF7, 72 h, read-out: Tumour cell growth/IC50 MCF-7
Description: as §1, §2

[4] = tested on: HCT 116 (colon carcinoma); assay: Cytostatic activity, MTT assay; type: cell-based, human; conditions: Homo sapiens, HCT-116, 72 h, read-out: Tumour cell growth/IC50 HCT 116
Description: as §1, §2

[5] = tested on: primary human embryonic lung (HEL) fibroblast cells; assay: Cytostatic activity, Coulter counter; type: cell-based; conditions: Homo sapiens, Fibroblast; 72 h, cell number by Coulter counter; primary fibroblasts
Description: as §1
(§3) The cytostatic activity of the tested compounds against murine leukemia L1210, human cervix carcinoma HeLa, human embrionic lung (HEL) and T-lymphocyte CEM cells was determined with cells grown in suspension (L1210, CEM) or monolayers (HeLa, HEL) in 200 µL-wells of 96-well microtiter plates (initial cell number: 5–7.5 × 10^4 cells/well). After 48 (L1210) or 72 (CEM, HeLa, HEL) h, the tumour cell number was determined by the use of a Coulter counter.

[6] = tested on: L1210 (murine leukemia); assay: Cytostatic activity, Coulter counter; type: cell-based; conditions: Mus musculus, L1210; 48 h, cell number by Coulter counter; read-out: Tumour cell growth/IC50 L1210
Description: as §1, §3

[7] = tested on: CEM (human lymphoma); assay: Cytostatic activity, Coulter counter; type: cell-based; conditions: Homo sapiens; 72 h, cell number by Coulter counter; read-out: Tumour cell growth/IC50 CEM
Description: as §1, §3

[8] = tested on: HeLa (cervix carcinoma); assay: Cytostatic activity, Coulter counter; type: cell-based, human; conditions: Homo sapiens, HeLa; 72 h, cell number by Coulter counter; read-out: Tumour cell growth/IC50 HeLa
Description: as §1, §3

[9] = tested on: RNA synthesis in CEM cells; assay: Antimetabolic activity: [5-3H]Urd incorporation (RNA synthesis) in CEM cell cultures; type: cell-based; conditions: Homo sapiens, CCRF-CEM, ~20 h, TCA-insoluble material
Text: (§4) A variety of compounds (2a, 3a, 4a with a cycloalkyl substituent directly attached to nitrogen atom, 2c, 3c, 4c with a cycloalkyl bound to nitrogen through a short spacer and 2e, 3e, 4e with an aromatic substituent) have been investigated on their inhibitory activity against DNA, RNA and protein synthesis in CEM cell cultures. The compounds were equally inhibitory to dThd (DNA synthesis), Urd (RNA synthesis) and Leu (protein synthesis) incorporation into TCA-insoluble cell material. The 2 series of compounds were least inhibitory whereas the 4 series were most inhibitory (IC50 in the lower micromolar range). Their antimetabolic IC50 values closely corresponded to their antiproliferative IC50 values. They also behaved as sorafenib in terms of antimetabolic potential (Table 3).
(§5) The procedures have been modified from previously described methods. Human CEM cells were seeded in 96-well microtiter plates at 10 × 10^4 cells/200 µL-well in the presence of serial dilutions of the tested compounds. Then, 0.25 µCi of [CH3-^3H]dThd (radiospecificity: 52 Ci/mmol) or 1 µCi of [5-^3H]Urd (radiospecificity: 26 Ci/mmol) or [4,5-^3H]Leu (radiospecificity: 160 Ci/mmol) were added and the drug-exposed tumour cell cultures further incubated at 37 °C for ~20 h. Then the content of each well was transfered to glass fiber discs (Wattman, GE Healthcare, Maidstone, UK), mounted on a manifold (Millipore, Billerica, MA, USA) and subsequently washed with PBS (to remove the radiolabel material that has not been incorporated in the cellular macromolecules), 10% and 5% trichoroacetic acid (TCA) (to precipitate DNA, RNA and proteins) and ethanol. Then, the radioactivity (TCA precipitate) associated with each disc was determined in a liquid scintillation counter (Packard, Palo Alto, CA, USA).

[10] = tested on: protein synthesis in CEM cells; assay: Antimetabolic activity: [4,5-3H]Leu incorporation (protein synthesis) in CEM cell cultures; type: cell-based; conditions: Homo sapiens, CCRF-CEM, ~20 h, TCA-insoluble material
Text: as §4, §5

[11] = tested on: DNA synthesis in CEM cells; assay: Antimetabolic activity: [CH3-3H]dThd incorporation (DNA synthesis) in CEM cell cultures; type: cell-based; conditions: Homo sapiens, CCRF-CEM, ~20 h, TCA-insoluble material
Text: as §4, §5

Structure (SMILES)	IC50 [1] [µM]	IC50 [2] [µM]	IC50 [3] [µM]	IC50 [4] [µM]	IC50 [5] [µM]	IC50 [6] [µM]	IC50 [7] [µM]	IC50 [8] [µM]	melting point [°C]	IC50 [9] [µM]	IC50 [10] [µM]	IC50 [11] [µM]
O=C(Nc1ccc(Oc2ccnc(C(=O)NC3CCCCC3)c2)cc1)Nc1ccc(Cl)c(C(F)(F)F)c1 [Compound 4b, 4-[4-[[4-Chloro-3-(trifluoromethyl)phenyl]carbamoylamino]phenoxy]-N-cyclohexyl-pyridine-2-carboxamide]	3 ± 0.2	2	2 ± 0.6	3 ± 0.8	3.2 ± 0.2	3.2 ± 1.7	3.6 ± 0.9	3 ± 0.2	–	–	–	–
Nc1ccc(Oc2ccnc(C(=O)NC3CCCCC3)c2)cc1 [Compound 3b, 4-(4-Aminophenoxy)-N-cyclohexylpyridine-2-carboxamide]	≥ 100	65 ± 33	≥ 100	37 ± 1	> 100	234 ± 4.5	> 100	> 100	150 to 153	–	–	–
O=C(NCc1ccccc1)c1cc(Cl)ccn1 [Compound 2d, 4-Chloro-N-benzylpyridine-2-carboxamide]	71 ± 28	> 100	≥ 100	≥ 100	> 100	≥ 100	≥ 100	> 100	70 to 72	–	–	–
Nc1ccc(Oc2ccnc(C(=O)NCC3CCCCC3)c2)cc1 [Compound 3c, 4-(4-Aminophenoxy)-N-cyclohexylmethylpyridine-2-carboxamide]	≥ 100	> 100	≥ 100	≥ 100	> 100	163 ± 147	> 100	> 100	135 to 137	92.1 ± 43	70.6 ± 27.6	> 100
O=C(Nc1ccc(Oc2ccnc(C(=O)NCc3ccccc3)c2)cc1)Nc1ccc(Cl)c(C(F)(F)F)c1 [Compound 4d, 4-[4-[[4-Chloro-3-(trifluoromethyl)phenyl]carbamoylamino]phenoxy]-N-benzyl-pyridine-2-carbox-amide]	2 ± 0.08	2 ± 0.2	2 ± 0.2	2 ± 0.8	3.1 ± 0.2	2 ± 0.4	4.3 ± 0.4	2.6 ± 0.6	160 to 163	–	–	–
O=C(NCCc1ccccc1)c1cc(Cl)ccn1 [Compound 2e, 4-Chloro-N-phenylethylpyridine-2-carboxamide]	> 100	> 100	57 ± 46	≥ 100	> 100	> 100	> 100	> 100	–	> 100	> 100	> 100
O=C(NCC1CCCCC1)c1cc(Cl)ccn1 [Compound 2c, 4-Chloro-N-cyclohexylmethylpyridine-2-carboxamide]	≥ 100	> 100	≥ 100	≥ 100	> 100	> 100	> 100	> 100	107 to 108	> 100	> 100	> 100
O=C(NC1CCCCC1)c1cc(Cl)ccn1 [Compound 2b, 4-Chloro-N-cyclohexylpyridine-2-carboxamide]	> 100	35 ± 12	≥ 100	> 100	> 100	> 100	> 100	> 100	116 to 119	–	–	–
O=C(Nc1ccc(Oc2ccnc(C(=O)NCC3CCCCC3)c2)cc1)Nc1ccc(Cl)c(C(F)(F)F)c1 [Compound 4c, 4-[4-[[4-Chloro-3-(trifluoromethyl)phenyl]carbamoylamino]phenoxy]-N-cyclohexylmethyl-pyridine-2-carboxamide]	3 ± 0.4	2 ± 0.2	2 ± 0.1	3 ± 1	2.9	1.8 ± 0.3	2 ± 0.5	2.7 ± 1.8	156 to 160	12.2 ± 8.4	27.4 ± 12.7	20.1 ± 10.9
O=C(Nc1ccc(Oc2ccnc(C(=O)NCCc3ccccc3)c2)cc1)Nc1ccc(Cl)c(C(F)(F)F)c1 [Compound 4e, 4-[4-[[4-Chloro-3-(trifluoromethyl)phenyl]carbamoylamino]phenoxy]-N-phenylethyl-pyridine-2-carboxamide]	2 ± 0.4	2 ± 0.2	2 ± 0.1	3 ± 0.7	4.6 ± 0.36	2.2 ± 0.2	2.5 ± 0.9	1.7 ± 0.2	–	6.6 ± 1.8	11.8 ± 7.7	12.7 ± 9
